Results published in US6358885B1, “Substituted phenylheterocyclic herbicides” (Mississippi State University, priority 1992, dated 2002).

Tests used:
Test in all cases: Test B preemergence/postemergence greenhouse plant response rating 0 to 10
[1] = system: barley; assay type: in vivo, Hordeum vulgare; conditions: for Plant response rating, Barley: 0 to 10 scale
Procedure, shortened: (§1)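 Test chemicals, dissolved in a non-phytotoxic solvent, were applied to soil at planting and, at the same time, over foliage of seedlings at the one to four leaf stage.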

[2] = system: barnyardgrass; assay type: in vivo, Echinochloa crus-galli; conditions: for Plant response rating, Barnyardgrass: 0 to 10 scale
Procedure, shortened: as §1

[3] = system: bedstraw; assay type: in vivo, Galium aparine; conditions: for Plant response rating, Bedstraw: 0 to 10 scale
Procedure, shortened: as §1

[4] = system: blackgrass; assay type: in vivo, Alopecurus myosuroides; conditions: for Plant response rating, Blackgrass: 0 to 10 scale
Procedure, shortened: as §1

[5] = system: cheatgrass; assay type: in vivo, Bromus secalinus; conditions: for Plant response rating, Cheatgrass: 0 to 10 scale
Procedure, shortened: as §1

[6] = system: chickweed; assay type: in vivo, Stellaria media; conditions: for Plant response rating, Chickweed: 0 to 10 scale
Procedure, shortened: as §1

[7] = system: cocklebur; assay type: in vivo, Xanthium pensylvanicum; conditions: for Plant response rating, Cocklebur: 0 to 10 scale
Procedure, shortened: as §1

[8] = system: corn; assay type: in vivo, Zea mays; conditions: for Plant response rating, Corn: 0 to 10 scale
Procedure, shortened: as §1

[9] = system: cotton; assay type: in vivo, Gossypium hirsutum; conditions: for Plant response rating, Cotton: 0 to 10 scale
Procedure, shortened: as §1

[10] = system: crabgrass; assay type: in vivo, Digitaria spp.; conditions: for Plant response rating, Crabgrass: 0 to 10 scale
Procedure, shortened: as §1

[11] = system: giant foxtail; assay type: in vivo, Setaria faberii; conditions: for Plant response rating, Giant foxtail: 0 to 10 scale
Procedure, shortened: as §1

[12] = system: lambsquarters; assay type: in vivo, Chenopodium album; conditions: for Plant response rating, Lambsquarter: 0 to 10 scale
Procedure, shortened: as §1

[13] = system: morningglory; assay type: in vivo, Ipomoea hederacea; conditions: for Plant response rating, Morningglory: 0 to 10 scale
Procedure, shortened: as §1

[14] = system: rape; assay type: in vivo, Brassica napus; conditions: for Plant response rating, Rape: 0 to 10 scale
Procedure, shortened: as §1

[15] = system: rice; assay type: in vivo, Oryza sativa; conditions: for Plant response rating, Rice: 0 to 10 scale
Procedure, shortened: as §1

[16] = system: sorghum; assay type: in vivo, Sorghum bicolor; conditions: for Plant response rating, Sorghum: 0 to 10 scale
Procedure, shortened: as §1

[17] = system: soybean; assay type: in vivo, Glycine max; conditions: for Plant response rating, Soybean: 0 to 10 scale
Procedure, shortened: as §1

[18] = system: sugar beet; assay type: in vivo, Beta vulgaris; conditions: for Plant response rating, Sugar beet: 0 to 10 scale
Procedure, shortened: as §1

[19] = system: velvetleaf; assay type: in vivo, Abutilon theophrasti; conditions: for Plant response rating, Velvetleaf: 0 to 10 scale
Procedure, shortened: as §1

[20] = system: wheat; assay type: in vivo, Triticum aestivum; conditions: for Plant response rating, Wheat: 0 to 10 scale
Procedure, shortened: as §1

[21] = system: wild buckwheat; assay type: in vivo, Polygonum convolvulus; conditions: for Plant response rating, Wild buckwheat: 0 to 10 scale
Procedure, shortened: as §1

[22] = system: wild oat; assay type: in vivo, Avena fatua; conditions: for Plant response rating, Wild oat: 0 to 10 scale
Procedure, shortened: as §1

[23] = system: purple nutsedge; assay type: in vivo, Cyperus rotundus; conditions: for Plant response rating, Nutsedge: 0 to 10 scale
Procedure, shortened: as §1

C=CCOc1cc(-c2nn3c(c2Cl)CCCC3)c(Cl)cc1Cl [Compound 71]
Plant response rating, Barley ([1]; POSTEMERGENCE, Rate 50 g/ha): 3 | Plant response rating, Barley ([1]; PREEMERGENCE, Rate 50 g/ha): 0 | Plant response rating (0 to 10 scale), Barley ([1]; PREEMERGENCE, Rate 200 g/ha): 0 | Plant response rating, Barley ([1]; Rate 200 g/ha, POSTEMERGENCE): 4 | Plant response rating, Barnyardgrass ([2]; POSTEMERGENCE, Rate 50 g/ha): 6 | Plant response rating, Barnyardgrass ([2]; PREEMERGENCE, Rate 50 g/ha): 0 | Plant response rating (0 to 10 scale), Barnyardgrass ([2]; PREEMERGENCE, Rate 200 g/ha): 5 | Plant response rating, Barnyardgrass ([2]; Rate 200 g/ha, POSTEMERGENCE): 8 | Plant response rating, Bedstraw ([3]; POSTEMERGENCE, Rate 50 g/ha): 8 | Plant response rating, Bedstraw ([3]; PREEMERGENCE, Rate 50 g/ha): 2 | Plant response rating (0 to 10 scale), Bedstraw ([3]; PREEMERGENCE, Rate 200 g/ha): 6 | Plant response rating, Bedstraw ([3]; Rate 200 g/ha, POSTEMERGENCE): 9 | Plant response rating, Blackgrass ([4]; POSTEMERGENCE, Rate 50 g/ha): 4 | Plant response rating, Blackgrass ([4]; PREEMERGENCE, Rate 50 g/ha): 0 | Plant response rating (0 to 10 scale), Blackgrass ([4]; PREEMERGENCE, Rate 200 g/ha): 0 | Plant response rating, Blackgrass ([4]; Rate 200 g/ha, POSTEMERGENCE): 6 | Plant response rating, Cheatgrass ([5]; POSTEMERGENCE, Rate 50 g/ha): 4 | Plant response rating, Cheatgrass ([5]; PREEMERGENCE, Rate 50 g/ha): 0 | Plant response rating (0 to 10 scale), Cheatgrass ([5]; PREEMERGENCE, Rate 200 g/ha): 2 | Plant response rating, Cheatgrass ([5]; Rate 200 g/ha, POSTEMERGENCE): 6 | Plant response rating, Chickweed ([6]; POSTEMERGENCE, Rate 50 g/ha): 2 | Plant response rating, Chickweed ([6]; PREEMERGENCE, Rate 50 g/ha): 0 | Plant response rating (0 to 10 scale), Chickweed ([6]; PREEMERGENCE, Rate 200 g/ha): 0 | Plant response rating, Chickweed ([6]; Rate 200 g/ha, POSTEMERGENCE): 3 | Plant response rating, Cocklebur ([7]; POSTEMERGENCE, Rate 50 g/ha): 7 | Plant response rating, Cocklebur ([7]; PREEMERGENCE, Rate 50 g/ha): 0 | Plant response rating (0 to 10 scale), Cocklebur ([7]; PREEMERGENCE, Rate 200 g/ha): 0 | Plant response rating, Cocklebur ([7]; Rate 200 g/ha, POSTEMERGENCE): 8 | Plant response rating, Corn ([8]; POSTEMERGENCE, Rate 50 g/ha): 3 | Plant response rating, Corn ([8]; PREEMERGENCE, Rate 50 g/ha): 0 | Plant response rating (0 to 10 scale), Corn ([8]; PREEMERGENCE, Rate 200 g/ha): 2 | Plant response rating, Corn ([8]; Rate 200 g/ha, POSTEMERGENCE): 3 | Plant response rating, Cotton ([9]; POSTEMERGENCE, Rate 50 g/ha): 10 | Plant response rating, Cotton ([9]; PREEMERGENCE, Rate 50 g/ha): 0 | Plant response rating (0 to 10 scale), Cotton ([9]; PREEMERGENCE, Rate 200 g/ha): 0 | Plant response rating, Cotton ([9]; Rate 200 g/ha, POSTEMERGENCE): 10 | Plant response rating, Crabgrass ([10]; POSTEMERGENCE, Rate 50 g/ha): 3 | Plant response rating, Crabgrass ([10]; PREEMERGENCE, Rate 50 g/ha): 0 | Plant response rating (0 to 10 scale), Crabgrass ([10]; PREEMERGENCE, Rate 200 g/ha): 5 | Plant response rating, Crabgrass ([10]; Rate 200 g/ha, POSTEMERGENCE): 3 | Plant response rating, Giant foxtail ([11]; POSTEMERGENCE, Rate 50 g/ha): 5 | Plant response rating, Giant foxtail ([11]; PREEMERGENCE, Rate 50 g/ha): 0 | Plant response rating (0 to 10 scale), Giant foxtail ([11]; PREEMERGENCE, Rate 200 g/ha): 8 | Plant response rating, Giant foxtail ([11]; Rate 200 g/ha, POSTEMERGENCE): 6 | Plant response rating, Lambsquarter ([12]; POSTEMERGENCE, Rate 50 g/ha): 10 | Plant response rating, Lambsquarter ([12]; PREEMERGENCE, Rate 50 g/ha): 10 | Plant response rating (0 to 10 scale), Lambsquarter ([12]; PREEMERGENCE, Rate 200 g/ha): 10 | Plant response rating, Lambsquarter ([12]; Rate 200 g/ha, POSTEMERGENCE): 10 | Plant response rating, Morningglory ([13]; POSTEMERGENCE, Rate 50 g/ha): 10 | Plant response rating, Morningglory ([13]; PREEMERGENCE, Rate 50 g/ha): 0 | Plant response rating (0 to 10 scale), Morningglory ([13]; PREEMERGENCE, Rate 200 g/ha): 0 | Plant response rating, Morningglory ([13]; Rate 200 g/ha, POSTEMERGENCE): 10 | Plant response rating, Rape ([14]; POSTEMERGENCE, Rate 50 g/ha): 8 | Plant response rating, Rape ([14]; PREEMERGENCE, Rate 50 g/ha): 0 | Plant response rating (0 to 10 scale), Rape ([14]; PREEMERGENCE, Rate 200 g/ha): 3 | Plant response rating, Rape ([14]; Rate 200 g/ha, POSTEMERGENCE): 10 | Plant response rating, Rice ([15]; POSTEMERGENCE, Rate 50 g/ha): 4 | Plant response rating, Rice ([15]; PREEMERGENCE, Rate 50 g/ha): 0 | Plant response rating (0 to 10 scale), Rice ([15]; PREEMERGENCE, Rate 200 g/ha): 0 | Plant response rating, Rice ([15]; Rate 200 g/ha, POSTEMERGENCE): 5 | Plant response rating, Sorghum ([16]; POSTEMERGENCE, Rate 50 g/ha): 6 | Plant response rating, Sorghum ([16]; PREEMERGENCE, Rate 50 g/ha): 0 | Plant response rating (0 to 10 scale), Sorghum ([16]; PREEMERGENCE, Rate 200 g/ha): 0 | Plant response rating, Sorghum ([16]; Rate 200 g/ha, POSTEMERGENCE): 6 | Plant response rating, Soybean ([17]; POSTEMERGENCE, Rate 50 g/ha): 6 | Plant response rating, Soybean ([17]; PREEMERGENCE, Rate 50 g/ha): 0 | Plant response rating (0 to 10 scale), Soybean ([17]; PREEMERGENCE, Rate 200 g/ha): 0 | Plant response rating, Soybean ([17]; Rate 200 g/ha, POSTEMERGENCE): 7 | Plant response rating, Sugar beet ([18]; POSTEMERGENCE, Rate 50 g/ha): 10 | Plant response rating, Sugar beet ([18]; PREEMERGENCE, Rate 50 g/ha): 5 | Plant response rating (0 to 10 scale), Sugar beet ([18]; PREEMERGENCE, Rate 200 g/ha): 10 | Plant response rating, Sugar beet ([18]; Rate 200 g/ha, POSTEMERGENCE): 10 | Plant response rating, Velvetleaf ([19]; POSTEMERGENCE, Rate 50 g/ha): 10 | Plant response rating, Velvetleaf ([19]; PREEMERGENCE, Rate 50 g/ha): 0 | Plant response rating (0 to 10 scale), Velvetleaf ([19]; PREEMERGENCE, Rate 200 g/ha): 10 | Plant response rating, Velvetleaf ([19]; Rate 200 g/ha, POSTEMERGENCE): 10 | Plant response rating, Wheat ([20]; POSTEMERGENCE, Rate 50 g/ha): 4 | Plant response rating, Wheat ([20]; PREEMERGENCE, Rate 50 g/ha): 0 | Plant response rating (0 to 10 scale), Wheat ([20]; PREEMERGENCE, Rate 200 g/ha): 2 | Plant response rating, Wheat ([20]; Rate 200 g/ha, POSTEMERGENCE): 6 | Plant response rating, Wild buckwheat ([21]; POSTEMERGENCE, Rate 50 g/ha): 10 | Plant response rating, Wild buckwheat ([21]; PREEMERGENCE, Rate 50 g/ha): 0 | Plant response rating (0 to 10 scale), Wild buckwheat ([21]; PREEMERGENCE, Rate 200 g/ha): 10 | Plant response rating, Wild buckwheat ([21]; Rate 200 g/ha, POSTEMERGENCE): 10 | Plant response rating, Wild oat ([22]; POSTEMERGENCE, Rate 50 g/ha): 3 | Plant response rating, Wild oat ([22]; PREEMERGENCE, Rate 50 g/ha): 2 | Plant response rating (0 to 10 scale), Wild oat ([22]; PREEMERGENCE, Rate 200 g/ha): 2 | Plant response rating, Wild oat ([22]; Rate 200 g/ha, POSTEMERGENCE): 5 | Plant response rating, Nutsedge ([23]; POSTEMERGENCE, Rate 50 g/ha): 2 | Plant response rating, Nutsedge ([23]; PREEMERGENCE, Rate 50 g/ha): 0 | Plant response rating (0 to 10 scale), Nutsedge ([23]; PREEMERGENCE, Rate 200 g/ha): 5 | Plant response rating, Nutsedge ([23]; Rate 200 g/ha, POSTEMERGENCE): 2
